Legend:
Type in all cases: cell-based
[1] = system: axons and growth cones of hippocampal neurons from wild-type mice; test: Immunofluorescence quantification of protein levels in axons and growth cones of wild-type hippocampal neurons
Method: (§1) Neuronal cultures. Cortical and hippocampal neurons were prepared from npc1+/+ and npc1−/− embryos at embryonic day 18 (E18); time-pregnant wild-type BALB/c or npc1+/− mice were obtained either from Charles River Laboratories (San Diego, Calif.) or from our breeding colony respectively. Neurons were cultured in NeuroBasal (GIBCO, Carlsbad, Calif.) with 10% bovine serum albumin (BSA), 2% B27, and 1% glutamine for three to four days before being used.
(§2) Treatment. For primary cultured neurons, chemicals (U18666A and inhibitors of various enzymes) were first dissolved in 10% DMSO before being diluted in cultured medium; final DMSO concentration was lower than 0.01%. For in vivo treatment, hydroxyfasudil monohydrochloride (Sigma) was dissolved in double-distilled H2O and injected subcutaneously at 10 mg/kg, twice a day from postnatal day 7 to day 28.
(§3) Immunofluorescent staining. Hippocampal neurons were fixed with 4% paraformaldehyde in phosphate buffer (PB; pH 7.4) for 15 min. After washing with 1× phosphate buffer saline (PBS), cells were permeabilized with 0.05% Triton X-100 in 1×PBS for 15 min, and incubated with blocking buffer (3% BSA, 0.02% Triton X-100 in 1×PBS) for 15 min before being probed with primary antibodies. The following primary antibodies were used: anti-E6AP (1:1000), anti-phospho-p53 (1:250), anti-phospho-4EBP1 (1:1000), antiphospho-Mdm2 antibody (1:250), anti-phospho-p38 antibody (1:250), anti-RhoA antibody (1:1500). All primary antibodies were diluted in blocking buffer and incubated at 4° C. for 18 h. After six washes (6×10 min) with 1×PBS at room temperature, cells were incubated with secondary antibodies, Alexa488-anti-rabbit (1:500) or Alexa594-anti-mouse (1:500); both antibodies were diluted in blocking buffer and incubated at room temperature for one h. Cells were then washed with 1×PBS (6×10 min) and sealed with mounting medium (Vectashield; Vector Laboratories, Inc., Burlingame, Calif.) containing 49,69-diamidino-2-phenylindole (DAPI) to stain nuclei. Immunofluorescent signal was detected with a Nikon confocal microscope (Nikon TE 2000U with DEclipse C1 system; Melville, N.Y.).
(§4) Quantification of growth cone morphology and immunoreactivity. Confocal images were taken using the 60× oil-immersion objective. About 20-30 images were randomly selected from each culture dish (20 mm in diameter); at least four to six dishes from three to six independent culture preparations/experiments were used for each experimental group. Within an experiment, cultures used for different experimental groups and designed for comparison were stained simultaneously and imaged with the same acquisition parameters. Quantification was done blindly by multiple researchers. Growth cones with less than 1 filopodium were considered collapsed; 100 growth cones were-quantified for each experimental group. Image J software was used to quantify immunoreactivity intensity of p-p53 and RhoA in axons and growth cones; the “total integrated density” was used instead of “average intensity”. Briefly, individual growth cones were outlined manually and the total integrated density was measured using Image J software. For quantification of immunoreactivity in axons, a 50 μm fragment of axons from the neck of growth cones towards the cell body was selected and integrated density measured.

[2] = system: cortical neurons cultured from wild-type mice; test: Immunoblotting analysis of various proteins in cultured cortical neurons (U18666A-induced changes); settings: pre-treatment with Y-27632
Method: as §1, §2
Immunoprecipitation and immunoblotting procedures. For immunoprecipitation, cultured cortical neurons were lysed in lysis buffer [0.05 M Tris base, 0.9% NaCl, pH 7.6, and 0.5% Triton X-100 plus Protease Inhibitors Cocktail (1:100; EMD Biosciences) and phosphatase inhibitor cocktails (1:500; Sigma)]. Lysates were centrifuged at 16,000×g for 30 min at 4° C. Supernatant were then cleared with a mixture of protein A/Gagarose beads (each 50%) for 1 h at 4 uC, and after a brief spin, pellets were discarded. A small portion of the supernatants was used as input. The reminder of the supernatant was immunoprecipitated overnight with control IgG or Tau1 antibodies. Immunoprecipitates were captured by incubation with protein A/G-agarose beads for 3 h at 4° C. After several washes, the beads were resuspended in 2×SDS sample buffer [4% sodium dodecyl sulfate (SDS), 100 mM Tris-HCl (pH 6.8), 10% b-mercaptoethanol, 20% glycerol and 0.2% bromophenol blue] and boiled for 10 min. The resulting proteins were separated by SDS-PAGE, and transferred to polyvinylidene difluoride membranes for immunoblotting using previously described protocols.
Because the p-p53Δ and p-p53 bands were very close in immunoblots and the former was the predominant band, p-p53Δ levels were used as an index of p-p53 degradation. Immunoprecipitation was used to determine whether p-p53 truncation affected its association with the microtubule-associated protein tau, a protein that is abundantly and exclusively expressed in axons. p53 labeled by either anti-p-p53 or anti-p53 antibodies was immunoprecipitated by Tau1 antibodies (FIG. 5B).
Increased levels of p-p53Δ and p-Mdm2 were quantified using the ImageJ program (National Institutes of Health, Bethesda, Md.). The quantified levels are contained in Table 1 below.

[3] = system: hippocampal neurons cultured from npc1−/− mice; test: p-p53 immunoreactivity in axons and growth cones of npc1−/− hippocampal neurons; settings: 10 μM Y-27632 for 18 h at DIV3
Method: as §1
(§5) Treatment. For primary cultured neurons, chemicals (U18666A and inhibitors of various enzymes) were first dissolved in 10% DMSO before being diluted in cultured medium; final DMSO concentration was lower than 0.01%. […]
(§6) Immunofluorescent staining. […] Immunofluorescent signal was detected with a Nikon confocal microscope (Nikon TE 2000U with DEclipse C1 system; Melville, N.Y.).
(§7) Quantification of growth cone morphology and immunoreactivity. […] Quantification was done blindly by multiple researchers. Growth cones with less than 1 filopodium were considered collapsed; 100 growth cones were-quantified for each experimental group. Image J software was used to quantify immunoreactivity intensity of p-p53 and RhoA in axons and growth cones; the “total integrated density” was used instead of “average intensity”. Briefly, individual growth cones were outlined manually and the total integrated density was measured using Image J software. […]

[4] = system: hippocampal neurons cultured from wild-type mice; test: Quantification of growth cone collapse in cultured neurons from wild-type mice (U18666A-induced); settings: Y-27632 10 μM pre-incubation for 2 h, then 5 μM U18666A for 2 min, DIV4; n=100 growth cones
Method: as §1, §2, §3, §4

[5] = system: hippocampal neurons cultured from npc1−/− mice; test: Growth cone collapse in hippocampal neurons cultured from npc1−/− mice; settings: 10 μM Y-27632 for 18 h at DIV3; vehicle 80±2%; n=100 growth cones
Method: as §1, §5, §6, §7

effect on U18666A-induced increase in levels of phosphorylated LIM kinase (immunoblot) [2]: significantly reduced
Compound: C[C@@H](N)[C@H]1CC[C@H](C(=O)Nc2ccncc2)CC1.Cl.Cl [Y-27632, trans-4-[(1R)-1-Aminoethyl]-N-4-pyridinylcyclohexanecarboxamide dihydrochloride]
effect on U18666A-induced decrease in p-p53 immunoreactivity in axons and growth cones ([1]; Y-27632 10 μM 2 h pretreatment, 5 μM U18666A 2 min): reversed
effect on U18666A-induced reduction of "mutant" p53 in axons and growth cones ([1]; pre-incubation with 10 μM Y27632): blocked
effect on U18666A-induced increase in p38 and Mdm2 phosphorylation, protein ubiquitination and RhoA levels (immunoblot) [2]: did not block
effect on U18666A-induced p-p53 truncation (immunoblot) [2]: significantly reduced
p-p53 immunoreactivity in axons and growth cones [3]: increased
growth cone collapse [4]: 41±1%
growth cone collapse [5]: 48±1%

Source: patent publication US20120010196A1, “METHODS OF TREATING NEURODEGENERATIVE DISORDERS AND DISEASES” (priority 2010, published 2012)
